Results: ChEMBL document CHEMBL5523764, “Discovery of NO Donor-Aurovertin Hybrids as Dual Ferroptosis and Apoptosis Inducers for Treating Triple Negative Breast Cancer” (J Med Chem, 2024)
Calls of active or inactive are those of the source. The calls are words filed in the database; no cut-off is given here.

How the values were obtained:
MDA-MB-231 [1] = experiment: Antitumor activity against human MDA-MB-231 cells xenografted in nude mouse assessed as reduction in tumor volume at 10 to 20 mg/kg, ip administered for 30 days; assay type: functional, organism-based; details: dose 10-20 mg/kg, time 30.0 day
4T1 [2] = experiment: Antimigratory activity in mouse 4T1 cells assessed as inhibition of cell migration at 0.02 to 0.5 uM incubated for 24 hrs by scratch assay; assay type: functional, cell-based; details: dose 0.02-0.5 µM
MDA-MB-231 [3] = experiment: Induction of ferroptosis in human MDA-MB-231 cells assessed as decrease in FTH1 expression by Western blot analysis; assay type: functional, cell-based; details: dose 0.25-1 µM
Cell membrane = experiment: Induction of mitochondrial membrane loss in human MDA-MB-231 cells assessed as increase in ratio of green fluorescence at 0.25 to 1 uM incubated for 24 hrs by JC-1 staining based; assay type: cell membranes; details: dose 0.25-1 µM
MDA-MB-231 [4] = experiment: Upregulation of Bid expression in human MDA-MB-231 cells at 0.25 to 1 uM by Western blot analysis; assay type: functional, cell-based; details: dose 0.25-1 µM
MDA-MB-231 [5] = experiment: Induction of ferroptosis in human MDA-MB-231 cells assessed as decrease in FTH1 expression in presence of Fer-1 by Western blot analysis; assay type: functional, cell-based
[6] = Selectivity index, ratio of IC50 for cytotoxicity against human MCF-10A cells to IC50 for antiproliferative activity against human MDA-MB-231 cells; assay type: toxicity, cell-based; details: MCF-10A cells versus MDA-MB-231 cells, read-out: Ratio IC50
MDA-MB-231 [7] = experiment: Induction of apoptosis in human MDA-MB-231 cells assessed as late apoptotic cells at 0.5 uM by Annexin V-FITC staining based flow cytometric analysis (reference value: 0.02 %); assay type: functional
MDA-MB-231 [8] = experiment: Upregulation of Bax expression in human MDA-MB-231 cells at 0.25 to 1 uM by Western blot analysis; assay type: functional, cell-based; details: dose 0.25-1 µM
MDA-MB-231 [9] = experiment: Induction of apoptosis in human MDA-MB-231 cells assessed as necrotic cells at 0.25 uM by Annexin V-FITC staining based flow cytometric analysis (reference value: 7.98 %); assay type: functional
MDA-MB-231 [10] = experiment: Induction of lipid ROS accumulation in human MDA-MB-231 cells incubated for 24 hrs in presence of Fer-1 by BODIPY-C11 probe based flow cytometric analysis; assay type: functional, cell-based
4T1 [11] = experiment: Inhibition of cell adhesion in mouse 4T1 cells assessed as rounded form appearance of cells at 0.02 to 0.5 uM incubated for 24 hrs by microscopic analysis; assay type: functional, cell-based; details: dose 0.02-0.5 µM
T47D = experiment: Antiproliferative activity against human T47D cells assessed as reduction in cell viability incubated for 72 hrs by MTT assay; assay type: functional, cell-based
MDA-MB-231 [12] = experiment: Induction of ferroptosis in human MDA-MB-231 cells assessed as decrease in GPX4 expression in presence of Fer-1 by Western blot analysis; assay type: functional, cell-based
MDA-MB-231 [13] = experiment: Antitumor activity against human MDA-MB-231 cells xenografted in nude mouse assessed as reduction in tumor weight at 20 mg/kg, ip administered for 30 days relative to control; assay type: functional; design: scale not given: the % may be the effect or the level left; details: time 30 day
MCF7 = experiment: Antiproliferative activity against human MCF7 cells assessed as reduction in cell viability incubated for 72 hrs by MTT assay; assay type: functional, cell-based; details: MCF7, 72 h
MDA-MB-231 [14] = experiment: Induction of apoptosis in human MDA-MB-231 cells assessed as necrotic cells at 0.5 uM by Annexin V-FITC staining based flow cytometric analysis (reference value: 7.98 %); assay type: functional
MDA-MB-231 [15] = experiment: Induction of apoptosis in human MDA-MB-231 cells assessed as upregulation of caspase-9 expression at 0.25 to 1 uM by Western blot analysis; assay type: functional, cell-based; details: dose 0.25-1 µM
MDA-MB-231 [16] = experiment: Induction of apoptosis in human MDA-MB-231 cells assessed as late apoptotic cells at 1 uM by Annexin V-FITC staining based flow cytometric analysis (reference value: 0.02 %); assay type: functional
MDA-MB-231 [17] = experiment: Antitumor activity against human MDA-MB-231 cells xenografted in nude mouse assessed as reduction in tumor size at 10 to 20 mg/kg, ip administered for 30 days; assay type: functional, organism-based; details: dose 10-20 mg/kg, time 30.0 day
4T1 [18] = experiment: Downregulation of phosphorylated AKT protein level at Thr308 residue in mouse 4T1 cells at 0.02 to 2.5 uM incubated for 24 hrs by Western blot analysis; assay type: functional, cell-based; details: dose 0.02-2.5 µM
[19] = Acute toxicity in female ICR mouse assessed as kidney pathological abnormalities at 50 mg/kg, ip measured after 2 days; assay type: organism-based; details: in vivo, 48 h, time 2 day
[20] = Acute toxicity in female ICR mouse assessed as effect on body weight at <40 mg/kg, ip measured within 24 hrs; assay type: organism-based; details: in vivo
MDA-MB-231 [21] = experiment: Induction of apoptosis in human MDA-MB-231 cells assessed as early apoptotic cells at 0.25 uM by Annexin V-FITC staining based flow cytometric analysis (reference value: 0.17 %); assay type: functional
[22] = Acute toxicity in ip female ICR mouse assessed as lethal dose measured after 2 days; assay type: organism-based; details: in vivo, time 2 day
MDA-MB-231 [23] = experiment: Antitumor activity against human MDA-MB-231 cells xenografted in nude mouse assessed as reduction in tumor weight at 10 mg/kg, ip administered for 30 days relative to control; assay type: functional; design: scale not given: the % may be the effect or the level left; details: time 30 day
HCC1937 = experiment: Antiproliferative activity against human HCC1937 cells assessed as reduction in cell viability incubated for 72 hrs by MTT assay; assay type: functional, cell-based; details: HCC1937, 72 h
[24] = Acute toxicity in female ICR mouse assessed as liver pathological abnormalities at 50 mg/kg, ip measured after 2 days; assay type: organism-based; details: in vivo, 48 h, time 2 day
MDA-MB-231 [25] = experiment: Induction of apoptosis in human MDA-MB-231 cells assessed as viable cells at 1 uM by Annexin V-FITC staining based flow cytometric analysis (reference value: 91.03%); assay type: functional; details: read-out: Activity
MDA-MB-231 [26] = experiment: Inhibition of Bcl2 expression in human MDA-MB-231 cells at 0.25 to 1 uM by Western blot analysis; assay type: functional, cell-based; details: dose 0.25-1 µM

For `CC[C@H]1O[C@@]2(C)[C@H](OC(C)=O)[C@@]1(C)O[C@@H](/C=C/C=C/C=C/c1oc(=O)cc(OC)c1C)[C@@H]2OC(=O)CCC(=O)OC/C=C/COc1no[n+]([O-])c1S(=O)(=O)c1ccccc1`, the Activity (MDA-MB-231 [1]) was “Active”, the Activity (4T1 [2]) was “Active” and the Activity (MDA-MB-231 [3]) was “Dose-Dependent Effect”. For the same compound, the Activity (Cell membrane) was “Active”, the Activity (MDA-MB-231 [4]) was “Active” and the Activity (MDA-MB-231 [5]) was “inactive”. For the same compound, the selectivity ratio [6] was > 79, the Activity (MDA-MB-231 [7]) was 8.01% and the Activity (MDA-MB-231 [8]) was “Active”. For the same compound, the Activity (MDA-MB-231 [9]) was 0.37%, the Activity (MDA-MB-231 [10]) was “inactive” and the inhibition (4T1 [11]) was “Active”. For the same compound, the IC50 (T47D) was > 50 µM, the Activity (MDA-MB-231 [12]) was “inactive” and the Activity (MDA-MB-231 [13]) was 91%. The IC50 (MCF7) was > 50 µM, the Activity (MDA-MB-231 [14]) was 0.44% and the Activity (MDA-MB-231 [15]) was “Active”. The Activity (MDA-MB-231 [16]) was 8.89%, the Activity (MDA-MB-231 [17]) was “Active” and the Activity (4T1 [18]) was “Active”. The Activity [19] was “Non-Toxic”, the Activity [20] was “Non-Toxic” and the Activity (MDA-MB-231 [21]) was 12.97%. It also gave an LD50 at 48 h [22] of 103 mg/kg, an Activity (MDA-MB-231 [23]) of 86% and an IC50 (HCC1937) of 0.87 µM. For the same compound, the Activity [24] was “Non-Toxic”, the viability at 1 µM (MDA-MB-231 [25]) was 47% and the inhibition (MDA-MB-231 [26]) was “Active”.
